Data published in patent US8410139B2, “Prodrugs of a piperidinyl derivative as modulators of chemokine receptor activity” (Bristol-Myers Squibb Company, priority 2009, dated 2013).
Converted amounts (≈) assume the structure as drawn. Like-named read-outs stand apart in the source and are kept apart here.

Tests used:
[1] = Solution stability assay (pH 1.0 and pH 7.4, 37° C.); assay type: physicochemical
Experimental: Acetonitrile Stock Solution: Prepare an Acetonitrile Stock Solution of the prodrug by dissolving 1.5-2.0 mg of accurately weighted compound in 5.0 mL of acetonitrile in 5 mL volumetric flask.
(§1) pH 7.4 Buffer Working Solution: Prepare a pH 7.4 Buffer working Solution of drug by adding 1.5 mL of the Acetonitrile Stock Solution to 3.5 mL of stability buffer in a 20 mL scintillation vial, mix very well. Using a 3 mL syringe withdraw ˜3 mL of solution and filter using the Gelman 0.45 μm syringe filter into a clean 1.5 mL LC vial. This filtered solution will be used to evaluate the prodrug degradation throughout the course of the study. Target concentration: 90-120 μg/mL (70% Aqueous: 30% Acetonitrile)
as §1, with “1.0 Acidic” for “7.4 Buffer”, “pH1.0 Working” for “pH 7.4 Buffer working”
Following the sample preparation procedure described above a single sample (n=1) is prepared for each pH condition. The samples were then placed in an HPLC autosampler maintained at 37° C. and samples were analyzed over a 24 hr period. Prodrug remaining (%) is reported relative to the initial peak area (t=0 h). In cases where a conversion to parent half-life could be calculated, a t1/2 was generated. Confirmation of the conversion to parent from the prodrug was obtained by LCMS and HPLC analysis of the final timepoint samples.
Typical LC parameters are shown below:
• HPLC System: HP1100 Series, Hewlett Packard., Heated autosampler • Analytical column. Synergi 4u Hydro C18, 4.6 mm×5.0 cm, Phenomenex • Column temperature: 40° C. • Autosampler temp: 37° C. • Flow rate: 1.0 mL/min • Injection Volume: 10 μL • Mobile Phase: A: Acetonitrile • B: 0.1% Phosphoric acid in water • Run Time: 14.0 minutes • Typical LCMS parameters are shown below: • LC-MS System: Surveyor HPLC system, ThermoFinnigan LCQ Deca XP Max (Ion trap) • Analytical column. Synergi 4u Hydro C18, 4.6 mm×5.0 cm, Phenomenex • Column temperature: 40° C. • Autosampler temp: 22° C. • Flow rate: 1.0 mL/min • Injection Volume: 5 […] • Mobile Phase: A: 95% Acetonitrile/5% 20 mM Ammonium Acetate • B: 5% Acetonitrile/95% 20 mM Ammonium Acetate • LCQ Parameters • Sheath Flow Rate: 81.64 • Aux/Sweep Flow Rate: 19.01 • Current (uA): 10.89 • Voltage (kV): 5.00 • Capillary©: 348.10 • Capillary Voltage (V): 30.44

[2] = Thermodynamic equilibrium aqueous solubility assay; assay type: physicochemical; conditions: thermodynamic from solid; for solubility thermodynamic: aqueous solvent, read-out: Aq. sol., mg/mL (pH)
Experimental: Thermodynamic Equilibrium Aqueous Solubility Assay
The calibration standard is prepared by accurately weighing 0.5-0.7 mg of sample in 5 ml of methanol. If the material is not fully soluble in methanol, other solvents such as DMSO or mixed solvents will be used.
*The calibration standard is typically prepared fresh immediately before the start of the assay. A two-point calibration curve should be used to determine the concentration of the final solution. A serial dilution is performed on the standard solution.
The final saturated solution is prepared by adding 1.0 ml of the appropriate aqueous solvent to the remaining portion of material (˜1 mg/l ml) into a 1 dram vial. The solution is sonicated and vortexed for ˜30 seconds. The sample solution is placed on an orbiter that continually agitates the sample solutions for 15-24 hours at room temperature. The final saturated solution is then transferred to a 1.5 ml Eppendorf tube and centrifuged for ˜2 min. at 10000 rpms. The supernatant from the saturated solution is transferred to a glass HPLC vial without filtering since the 1.5 mL volume is insufficient to saturate a syringe filter. This sample preparation procedure nullifies the effects of non-specific binding to the filtering apparatus.
The standards and sample are analyzed by HPLC using either UV/Vis diode array or variable wavelength detection. Typical quantitation wavelengths are 210 or 254 nm; detection wavelength can be individually customized to optimize sensitivity. In addition to UV detection, mass spectrometry detection is recommended if available in order to confirm the identity of the HPLC-UV peak of interest.
Dilutions of aqueous test solutions are performed if HPLC-UV peak is beyond the linear portion of the standard calibration curve. Typical dilutions include 100 ul/900 ul (×10) or 500 ul/500 ul (2×), as required.
HPLC grade solvents are employed.

[3] = pH 1, conversion of the prodrug to compound 1, 37° C., read-out: Aq. Stability half-life (pH 1/7.4) Hrs (converted)
[4] = pH 7.4, conversion of the prodrug to compound 1, 37° C., read-out: Aq. Stability half-life (pH 1/7.4) Hrs (converted)

SMILES	half-life [1, 3]	half-life [1, 4]	solubility thermodynamic ([2]; pH 6.5, aqueous buffer)	solubility thermodynamic ([2]; pH 7.4, aqueous buffer)	half-life ([1]; pH 1, parent compound, read-out: chemical stability half-life (converted))	half-life ([1]; pH 7.4, parent compound, read-out: chemical stability half-life (converted))	solubility ([2]; aqueous buffer, pH 6.6 buffer)
CC(C)[C@@H](N)C(=O)OCOC(=O)OC(C)(C)CNC(=O)N[C@@H](C(=O)N1CC[C@](O)(c2ccc(Cl)cc2)C(C)(C)C1)C(C)C [Example 12]	82 h	0.3 h					
CC(C)[C@@H](NC(=O)NCC(C)(C)OC(=O)CN)C(=O)N1CC[C@](O)(c2ccc(Cl)cc2)C(C)(C)C1 [Example 1, 1-(3-((R)-1-((S)-4-(4-chlorophenyl)-4-hydroxy-3,3-dimethylpiperidin-1-yl)-3-methyl-1-oxobutan-2-yl)ureido)-2-methylpropan-2-yl 2-aminoacetate]	159 h	86 h	1.1 mg/mL (≈ 2150 µM)				
CC(C)[C@@H](NC(=O)NCC(C)(C)OC(=O)CCC(=O)O)C(=O)N1CC[C@](O)(c2ccc(Cl)cc2)C(C)(C)C1 [Example 19]	> 22 h	> 22 h	0.08 mg/mL (≈ 144 µM)				
CC(C)[C@@H](NC(=O)NCC(C)(C)OC(=O)OCOC(=O)C1(N)CC1)C(=O)N1CC[C@](O)(c2ccc(Cl)cc2)C(C)(C)C1 [Example 14]	49 h	107 h		0.18 mg/mL (≈ 295 µM)			
CC(C)[C@@H](NC(=O)NCC(C)(C)OC(=O)OCCN1CCOCC1)C(=O)N1CC[C@](O)(c2ccc(Cl)cc2)C(C)(C)C1 [Example 7, 1-(3-((R)-1-((S)-4-(4-chlorophenyl)-4-hydroxy-3,3-dimethylpiperidin-1-yl)-3-methyl-1-oxobutan-2-yl)ureido)-2-methylpropan-2-yl 2-morpholinoethyl carbonate]	85 h	131 h	0.34 mg/mL (≈ 556 µM)				
CC(C)[C@@H](NC(=O)NCC(C)(C)O)C(=O)N1CC[C@](O)(c2ccc(Cl)cc2)C(C)(C)C1 [Compound 1, 1-((R)-1-((S)-4-(4-chlorophenyl)-4-hydroxy-3,3-dimethylpiperidin-1-yl)-3-methyl-1-oxobutan-2-yl)-3-(2-hydroxy-2-methylpropyl)urea]					30 h	> 22 h	47 µg/mL (≈ 104 µM)
CCC(=O)OC(C)(C)CNC(=O)N[C@@H](C(=O)N1CC[C@](O)(c2ccc(Cl)cc2)C(C)(C)C1)C(C)C [Example 5, 1-(3-((R)-1-((S)-4-(4-chlorophenyl)-4-hydroxy-3,3-dimethylpiperidin-1-yl)-3-methyl-1-oxobutan-2-yl)ureido)-2-methylpropan-2-yl propionate]	25 h	> 22 h	0.04 mg/mL (≈ 78.4 µM)				
CC(C)[C@@H](NC(=O)NCC(C)(C)OC(=O)Cc1ccc(OP(=O)(O)O)cc1)C(=O)N1CC[C@](O)(c2ccc(Cl)cc2)C(C)(C)C1 [Example 24]	77 h	> 22 h	1.1 mg/mL (≈ 1650 µM)				
CC(C)[C@@H](NC(=O)NCC(C)(C)OC(=O)OCOP(=O)(O)O)C(=O)N1CC[C@](O)(c2ccc(Cl)cc2)C(C)(C)C1 [Example 11]	107 h	0.3 h					
COC(=O)CCC(=O)OC(C)(C)CNC(=O)N[C@@H](C(=O)N1CC[C@](O)(c2ccc(Cl)cc2)C(C)(C)C1)C(C)C [Example 18]	> 22 h	> 22 h		0.059 mg/mL (≈ 104 µM)			
CC(C)[C@@H](NC(=O)NCC(C)(C)OCOP(=O)(O)O)C(=O)N1CC[C@](O)(c2ccc(Cl)cc2)C(C)(C)C1 [Example 10]	< 1 h						
CC(=O)OCOC(=O)OC(C)(C)CNC(=O)N[C@@H](C(=O)N1CC[C@](O)(c2ccc(Cl)cc2)C(C)(C)C1)C(C)C [Example 15]	> 22 h	> 22 h		0.022 mg/mL (≈ 38.6 µM)			
CC(C)[C@@H](NC(=O)NCC(C)(C)OC(=O)OCOC(=O)C(C)(C)N)C(=O)N1CC[C@](O)(c2ccc(Cl)cc2)C(C)(C)C1 [Example 13]	10.1 h	0.25 h					
CCOC(=O)CCC(=O)OC(C)(C)CNC(=O)N[C@@H](C(=O)N1CC[C@](O)(c2ccc(Cl)cc2)C(C)(C)C1)C(C)C [Example 17]	> 22 h	> 22 h		< 0.007 mg/mL			
CC(C)[C@@H](NC(=O)NCC(C)(C)OC(=O)CS(=O)(=O)O)C(=O)N1CC[C@](O)(c2ccc(Cl)cc2)C(C)(C)C1 [Example 21]	> 22 h	> 22 h		> 16 mg/mL			

Second part, the molecule after the results:

half-life [1, 3]	half-life [1, 4]	solubility thermodynamic ([2]; pH 6.5, aqueous buffer)	solubility thermodynamic ([2]; pH 7.4, aqueous buffer)	half-life ([1]; pH 1, parent compound, read-out: chemical stability half-life (converted))	half-life ([1]; pH 7.4, parent compound, read-out: chemical stability half-life (converted))	solubility ([2]; aqueous buffer, pH 6.6 buffer)	SMILES
97 h	> 22 h	> 1.2 mg/mL					CC(COC(=O)OC(C)(C)CNC(=O)N[C@@H](C(=O)N1CC[C@](O)(c2ccc(Cl)cc2)C(C)(C)C1)C(C)C)OP(=O)(O)O (stereo partly shown) [Example 36]
47 h	> 22 h	> 0.18 mg/mL					CC(C)[C@@H](NC(=O)NCC(C)(C)OC(=O)OCOC(=O)CS(=O)(=O)O)C(=O)N1CC[C@](O)(c2ccc(Cl)cc2)C(C)(C)C1 [Example 34]
25 h	23 h	> 0.3 mg/mL					CC(C)[C@@H](NC(=O)NCC(C)(C)OC(=O)OCS(=O)(=O)O)C(=O)N1CC[C@](O)(c2ccc(Cl)cc2)C(C)(C)C1 [Example 23]
33 h	> 22 h	0.31 mg/mL (≈ 589 µM)					CC(O)C(=O)OC(C)(C)CNC(=O)N[C@@H](C(=O)N1CC[C@](O)(c2ccc(Cl)cc2)C(C)(C)C1)C(C)C (stereo partly shown) [Example 30]
> 22 h	> 22 h	> 1.6 mg/mL					CCC(O)CC(=O)OCOC(=O)OC(C)(C)CNC(=O)N[C@@H](C(=O)N1CC[C@](O)(c2ccc(Cl)cc2)C(C)(C)C1)C(C)C (stereo partly shown) [Example 33]
16.6 h	73 h		> 0.32 mg/mL				CC(C)[C@@H](NC(=O)NCC(C)(C)O)C(=O)N1CC[C@](OCOC(=O)[C@@H](C)O)(c2ccc(Cl)cc2)C(C)(C)C1 [Example 25]
81 h	> 22 h	4.8 mg/mL (≈ 7920 µM)					CC(C)[C@@H](NC(=O)NCC(C)(C)OC(=O)CCOP(=O)(O)O)C(=O)N1CC[C@](O)(c2ccc(Cl)cc2)C(C)(C)C1 [Example 29]
44 h	> 22 h	> 7 mg/mL					CC(C)[C@@H](NC(=O)NCC(C)(C)OC(=O)CCS(=O)(=O)O)C(=O)N1CC[C@](O)(c2ccc(Cl)cc2)C(C)(C)C1 [Example 22]
61 h	> 22 h	> 3.3 mg/mL					CC(OP(=O)(O)O)C(=O)OC(C)(C)CNC(=O)N[C@@H](C(=O)N1CC[C@](O)(c2ccc(Cl)cc2)C(C)(C)C1)C(C)C (stereo partly shown) [Example 31]
1.4 h	> 22 h	7.1 mg/mL (≈ 12600 µM)					CC(C)[C@@H](NC(=O)NCC(C)(C)O)C(=O)N1CC[C@](OCOP(=O)(O)O)(c2ccc(Cl)cc2)C(C)(C)C1 [Example 28]
